These results are taken from article PMC8168342 (Chemical biology & drug design, 2021).

The experiment addresses T1, androgen receptor (AR) (Homo sapiens, UniProt P10275).
T1 sequence (P10275 1-920): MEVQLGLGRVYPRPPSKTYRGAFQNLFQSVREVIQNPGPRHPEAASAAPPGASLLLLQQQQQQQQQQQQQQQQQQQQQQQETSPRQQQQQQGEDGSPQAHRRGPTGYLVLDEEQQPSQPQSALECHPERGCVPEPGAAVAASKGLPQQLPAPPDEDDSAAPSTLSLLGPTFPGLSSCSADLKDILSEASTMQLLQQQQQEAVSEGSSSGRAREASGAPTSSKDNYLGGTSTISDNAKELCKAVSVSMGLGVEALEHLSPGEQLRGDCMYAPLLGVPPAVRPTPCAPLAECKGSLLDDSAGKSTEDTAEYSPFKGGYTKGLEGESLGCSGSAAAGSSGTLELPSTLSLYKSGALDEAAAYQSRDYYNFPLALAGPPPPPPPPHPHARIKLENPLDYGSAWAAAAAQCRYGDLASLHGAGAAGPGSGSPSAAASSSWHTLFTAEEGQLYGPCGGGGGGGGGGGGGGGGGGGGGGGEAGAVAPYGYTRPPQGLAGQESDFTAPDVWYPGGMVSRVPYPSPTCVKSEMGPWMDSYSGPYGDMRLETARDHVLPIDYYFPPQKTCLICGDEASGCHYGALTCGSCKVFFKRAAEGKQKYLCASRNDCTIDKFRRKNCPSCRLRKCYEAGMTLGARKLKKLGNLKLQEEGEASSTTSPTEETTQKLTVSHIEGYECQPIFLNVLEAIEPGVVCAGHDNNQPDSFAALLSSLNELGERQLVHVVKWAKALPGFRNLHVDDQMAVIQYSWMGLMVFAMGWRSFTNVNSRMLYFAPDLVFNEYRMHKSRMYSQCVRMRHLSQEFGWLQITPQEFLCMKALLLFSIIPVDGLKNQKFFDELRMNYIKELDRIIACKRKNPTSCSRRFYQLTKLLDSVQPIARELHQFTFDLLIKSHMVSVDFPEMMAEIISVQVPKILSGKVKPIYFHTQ
Description: ARE luciferase reporter assay in MDA-kb2 cells, antagonism of […] DHT. The experiment is classed as cell-based. Background: Reporter assays use an easily measured gene product as a stand-in for the process of interest.

On to `CC1(C)C(=O)N(c2ccc(C#N)c(C(F)(F)F)c2)C(=S)N1c1ccc(CCCCCCO)nc1` [10b, 4-(3-(6-(6-Hydroxyhexyl)pyridin-3-yl)-4,4-dimethyl-5-oxo-2-thioxoimidazolidin-1-yl)-2-(trifluoromethyl) benzonitrile], for which the “% inhibition at 1 μM” value was determined as 60. The result for `CC1(C)C(=O)N(c2ccc(C#N)c(C(F)(F)F)c2)C(=S)N1c1ccc(CCCCCCN=[N+]=[N-])nc1` [11b, 4-(3-(6-(6-Azidohexyl)pyridin-3-yl)-4,4-dimethyl-5-oxo-2-thioxoimidazolidin-1-yl)-2-(trifluoromethyl) benzonitrile] reads 60.
